For 71 compounds, logRA results are on record in ChEMBL document CHEMBL1140601, “Quantitative structure-activity relationship (QSAR) of tacrine derivatives against acetylcholinesterase (AChE) activity using variable selections” (Bioorg Med Chem Lett, 2007).

Molecules are shown by their SMILES.

In the assay the target is Acetylcholinesterase (Homo sapiens) (UniProt P22303).
Acetylcholinesterase (Homo sapiens), sequence (P22303 whole entry): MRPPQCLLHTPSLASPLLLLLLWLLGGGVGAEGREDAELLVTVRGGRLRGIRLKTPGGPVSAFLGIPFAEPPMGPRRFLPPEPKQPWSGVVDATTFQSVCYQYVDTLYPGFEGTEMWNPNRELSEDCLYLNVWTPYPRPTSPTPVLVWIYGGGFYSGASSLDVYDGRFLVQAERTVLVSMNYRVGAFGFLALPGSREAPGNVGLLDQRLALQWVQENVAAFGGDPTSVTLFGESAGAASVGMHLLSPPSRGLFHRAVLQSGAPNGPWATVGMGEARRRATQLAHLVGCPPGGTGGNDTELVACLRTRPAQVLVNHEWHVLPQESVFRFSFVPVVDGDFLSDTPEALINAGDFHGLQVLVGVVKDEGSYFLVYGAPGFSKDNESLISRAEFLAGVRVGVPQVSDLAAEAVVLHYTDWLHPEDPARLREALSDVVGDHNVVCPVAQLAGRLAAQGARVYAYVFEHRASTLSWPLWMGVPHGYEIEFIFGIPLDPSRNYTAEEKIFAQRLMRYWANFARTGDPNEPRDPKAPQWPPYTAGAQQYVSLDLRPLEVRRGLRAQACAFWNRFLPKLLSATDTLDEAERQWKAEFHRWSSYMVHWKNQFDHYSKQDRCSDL
Description: Inhibition of AchE relative to tacrine
The compound `CCOC(=O)C1=C(C)Oc2nc3c(c(N)c2C1c1ccccc1)CCC3` (stereo unspecified) displayed a logRA of -1.48. For `CCOC(=O)c1c(C)nc2nc3c(c(N)c2c1-c1ccncc1)CCC3`, the logRA is -1.77. As for `Nc1c2c(nc3ccccc13)CSCC2=O`, the figure is -0.745. Consider `CCOC(=O)c1c(C)nc2nc3c(c(N)c2c1-c1ccncc1)CCCCC3`, for which the logRA was -1.56. Then `CCOC(=O)C1=C(C)Oc2nc3c(c(N)c2C1c1ccccc1OC)CCC3` (stereo unspecified), with -2.12; and `Nc1c2c(nc3cc(F)ccc13)-c1ccccc1C2`, with -0.681. `c1ccc2c(NCCCCCCCNc3c4c(nc5ccccc35)CCCC4)c3c(nc2c1)CCCC3`: the logRA was determined as 2.41.

Compound `CCOC(=O)c1c(C)nc2nc3c(c(N)c2c1-c1ccccc1)CCCC3` showed a logRA of -0.801.

As to `CCOC(=O)c1c(C)nc2nc3c(c(N)c2c1-c1ccc(OC)c(OC)c1)CCCC3`, the logRA was -0.859. For the compound `Fc1ccc2c(NCCCCCCCCNc3c4c(nc5cc(F)ccc35)CCCC4)c3c(nc2c1)CCCC3`, the logRA was determined as 2.68. `Nc1c2c(nc3ccccc13)C[S+]([O-])CC2O` (stereo unspecified) gave a logRA of -0.745. Consider `CCOC(=O)c1c(C)nc2nc3c(c(N)c2c1-c1ccc(OC)cc1)CCCCC3`, for which the logRA was -1.02. Then `Nc1c2c(nc3ccccc13)-c1ccc(Cl)cc1C2`, with -1.33; and `CCOC(=O)C1=C(C)Oc2nc3c(c(N)c2C1c1ccccc1)CCCC3` (stereo unspecified), with -1.08. As for `CCOC(=O)C1=C(C)Oc2nc3c(c(N)c2C1c1ccc(Cl)cc1)CCCC3` (stereo unspecified), the figure is -1.17; as for `CC1=CC2Cc3nc4cc(Cl)ccc4c(NCCCN(C)CCCNc4c5c(nc6cc(Cl)ccc46)CCCC5)c3C(C1)C2` (stereo unspecified), 2.85.

`Cc1nc2nc3c(c(N)c2c(-c2ccccc2)c1C(=O)OC(C)C)CCCC3` gave a logRA of -0.824. Regarding `CCOC(=O)c1c(C)nc2nc3c(c(N)c2c1-c1ccccc1)CCCCC3`, the logRA is -0.768. `O=C(CNc1c2c(nc3ccccc13)CCCC2)NCCC1CCN(c2ccccc2)CC1` returned a logRA of 1.57. As for `CC1=CC2Cc3nc4cc(Cl)ccc4c(NCCCCCCCCNc4c5c(nc6cc(Cl)ccc46)CCCC5)c3C(C1)C2` (stereo unspecified), the figure is 2.71; as for `CCOC(=O)c1c(C)nc2nc3c(c(N)c2c1-c1cccs1)CCCCC3`, -2.01; as for `CC1=CC2Cc3nc4cc(Cl)ccc4c(NCCCCCCNc4c5c(nc6cc(Cl)ccc46)CCCC5)c3C(C1)C2` (stereo unspecified), 2.66. Regarding `CCOC(=O)c1c(C)nc2nc3c(c(N)c2c1-c1cccs1)CCC3`, the logRA is -2.3.

The compound `CCOC(=O)c1c(C)nc2nc3c(c(N)c2c1-c1cccn1C(C)=O)CCCC3` returned a logRA of -1.08. Compound `CCOC(=O)c1c(C)nc2nc3c(c(N)c2c1-c1ccc(OC)cc1)CCCC3` displayed a logRA of -1.84. `CCOC(=O)c1c(C)nc2nc3c(c(N)c2c1-c1cccs1)CCCC3`: the logRA is -2.25. For `CCOC(=O)C1=C(C)Oc2nc3c(c(N)c2C1c1cccc(OC)c1)CCCCC3` (stereo unspecified), the logRA is -1.86. `CC1=CC2Cc3nc4cc(Cl)ccc4c(NCCCCCCCCNc4c5c(nc6ccccc46)CCCC5)c3C(C1)C2` (stereo unspecified): the logRA amounted to 2.79.

For `c1ccc2c(NCCCCCCNc3c4c(nc5ccccc35)CCCCC4)c3c(nc2c1)CCCCC3`, the logRA amounted to 2.19. For `CCOC(=O)C1=C(C)Oc2nc3c(c(N)c2C1c1ccccc1OC)CCCC3` (stereo unspecified), the logRA is -1.63. In the case of `CCOC(=O)c1c(C)nc2nc3c(c(N)c2c1-c1cccc(OC)c1)CCCC3`, the logRA is -0.824.

With `CCOC(=O)c1c(C)nc2nc3c(c(N)c2c1-c1ccncc1)CCCC3`, the logRA was -1. On to `Nc1c2c(nc3cc(Cl)ccc13)-c1ccccc1C2`, for which the logRA was -1.42. Then `CCOC(=O)c1c(C)nc2nc3c(c(N)c2c1-c1ccc(OC)cc1)CCC3`, with -2.02; and `CCOC(=O)C1=C(C)Oc2nc3c(c(N)c2C1c1ccncc1)CCCCC3` (stereo unspecified), with -1.79.

The compound `CC1=CC2Cc3nc4cc(Cl)ccc4c(NCCCN(C)CCCNc4c5c(nc6ccccc46)CCCC5)c3C(C1)C2` (stereo unspecified) had a logRA of 2.81. The compound `CCOC(=O)c1c(C)nc2nc3c(c(N)c2c1-c1ccc(F)cc1)CCCCC3` returned a logRA of -1.48. For the compound `CCOC(=O)c1c(C)nc2nc3c(c(N)c2c1-c1ccccc1)CCC3`, the logRA was -1.96. As for `CCOC(=O)C1=C(C)Oc2nc3c(c(N)c2C1c1ccc(OC)c(OC)c1)CCCC3` (stereo unspecified), the logRA is -1.41.

For the compound `CCOC(=O)C1=C(C)Oc2nc3c(c(N)c2C1c1cccnc1)CCCC3` (stereo unspecified), the logRA is -1.71.

In turn, `CCOC(=O)c1c(C)nc2nc3c(c(N)c2c1-c1ccc(OC)c(OC)c1)CCCCC3` yielded a logRA of -1.55. For `CCOC(=O)C1=C(C)Oc2nc3c(c(N)c2C1c1ccc(C#N)cc1)CCCC3` (stereo unspecified), the logRA was -1.43.

In turn, `CC1=CC2Cc3nc4cc(Cl)ccc4c(NCCCCCCCNc4c5c(nc6cc(Cl)ccc46)CCCC5)c3C(C1)C2` (stereo unspecified) displayed a logRA of 2.79. The compound `Cc1cccc2c1Cc1c-2nc2ccccc2c1N` came in with a logRA of -1.19. Take `CCOC(=O)c1c(C)nc2nc3c(c(N)c2c1-c1ccc(Cl)cc1)CCCC3`: the logRA is -0.859.

For `CCOC(=O)C1=C(C)Oc2nc3c(c(N)c2C1c1ccccc1OC)CCCCC3` (stereo unspecified), the logRA was -2.07. In turn, `Nc1ccc2nc3c(c(N)c2c1)Cc1ccccc1-3` returned a logRA of -1.37.

As to `Fc1ccc2c(NCCCCCCCNc3c4c(nc5ccccc35)CCC4)c3c(nc2c1)CCC3`, the logRA came to 0.647. The compound `COc1cccc2c1Cc1c-2nc2ccccc2c1N` came in with a logRA of -0.806.

For `Nc1c2c(nc3ccccc13)-c1ccccc1C2`, the logRA is -0.435. In turn, `CC1=CC2Cc3nc4cc(Cl)ccc4c(NCCCCCCCNc4c5c(nc6ccccc46)CCCC5)c3C(C1)C2` (stereo unspecified) showed a logRA of 2.78. On to `CCOC(=O)C1=C(C)Oc2nc3c(c(N)c2C1c1ccncc1)CCCC3` (stereo unspecified), for which the logRA was -1.33.

Compound `Clc1ccc2c(NCCCCCCNc3c4c(nc5cc(Cl)ccc35)CCCC4)c3c(nc2c1)CCCC3` yielded a logRA of 2.74. Regarding `Fc1ccc2c(NCCCCCCNc3c4c(nc5cc(F)ccc35)CCCC4)c3c(nc2c1)CCCC3`, the logRA was found to be 2.57.

Compound `c1ccc2c(NCCCCCCCCNc3c4c(nc5ccccc35)CCCC4)c3c(nc2c1)CCCC3` gave a logRA of 2.32.

As to `COc1ccc2c(c1)-c1nc3ccccc3c(N)c1C2`, the logRA was -1.24. In turn, `CC1=CC2Cc3nc4ccccc4c(NCCCCCCCCNc4c5c(nc6ccccc46)CCCC5)c3C(C1)C2` (stereo unspecified) registered a logRA of 2.4. In turn, `CCOC(=O)c1c(C)nc2nc3c(c(N)c2c1-c1cccc([N+](=O)[O-])c1)CCCC3` gave a logRA of -0.713. The compound `Cc1ccc2c(c1)-c1nc3ccccc3c(N)c1C2` returned a logRA of -1.26. Then `CCOC(=O)C1=C(C)Oc2nc3c(c(N)c2C1c1ccc(C)cc1)CCCC3` (stereo unspecified), with -1.15; and `Nc1c2c(nc3ccccc13)CSCC2O` (stereo unspecified), with -0.852; and `c1ccc2c(NCCCCCCNc3c4c(nc5ccccc35)CCCC4)c3c(nc2c1)CCCC3`, with 2.38. As for `CCOC(=O)c1c(C)nc2nc3c(c(N)c2c1-c1ccc(F)cc1)CCCC3`, the logRA was -0.596. In the case of `CCOC(=O)C1=C(C)Oc2nc3c(c(N)c2C1c1ccncc1)CCC3` (stereo unspecified), the logRA was -1.67. `CNc1c2c(nc3ccccc13)-c1ccccc1C2` had a logRA of -0.716.

`CCOC(=O)C1=C(C)Oc2nc3c(c(N)c2C1c1cccc([N+](=O)[O-])c1)CCCC3` (stereo unspecified) yielded a logRA of -1.16. As for `CCOC(=O)C1=C(C)Oc2nc3c(c(N)c2C1c1ccc(OC)c(OC)c1)CCCCC3` (stereo unspecified), the logRA is -2.26. For the compound `CCOC(=O)C1=C(C)Oc2nc3c(c(N)c2C1c1ccc(OC)cc1)CCCC3` (stereo unspecified), the logRA was -0.825. `COc1ccc2c(c1)Cc1c-2nc2ccccc2c1N` gave a logRA of -1.42.

Regarding `CCOC(=O)C1=C(C)Oc2nc3c(c(N)c2C1c1ccc(OC)c(OC)c1)CCC3` (stereo unspecified), the logRA was -2.18. Consider `CC1=CC2Cc3nc4cc(Cl)ccc4c(NCCCCCCNc4c5c(nc6ccccc46)CCCC5)c3C(C1)C2` (stereo unspecified), for which the logRA was 2.61.
